“And” between values parts separate entries of the source, which are not always exact repeats. Equal values may be shown once. Read-outs that look alike come from different tables or passages of the source.
What was measured:
cyanobacteria [1] = assay type: cell-based
cyanobacteria [2] = assay type: cell-based; remark: listed apart in the source

CCCCCCCCCCCCOS(=O)(=O)[O-].[Na+] [SDS, reference compound]
Microcystin concentration determined by the assay (cyanobacteria [1]; 0.1%): 14.13 ppb

Triton X-100 [reference compound]
Microcystin concentration determined by the assay (cyanobacteria [1]): 2.92 ppb and 2.52 ppb and 2.55 ppb

O=[N+]([O-])[O-].[Ag+] [Silver nitrate]
effectiveness as a lytic agent (cyanobacteria [2]): as effective as silver sulfate as a lytic agent

O=S(=O)([O-])[O-].O=S(=O)([O-])[O-].O=S(=O)([O-])[O-].[Al+3].[Al+3] [Al2(SO4)3, reference compound]
Microcystin concentration determined by the assay (cyanobacteria [1]; 100 ppm): 0.45 ppb

O=S(=O)([O-])[O-].[Cu+2] [CuSO4, copper sulfate]
Microcystin concentration determined by the assay (cyanobacteria [1]; 10 ppm): 2.40 ppb
Microcystin concentration determined by the assay (cyanobacteria [1]; 100 ppm): 2.31 ppb
Microcystin concentration determined by the assay (cyanobacteria [1]; 1000 ppm): 7.25 ppb and 5.17 ppb
Microcystin concentration determined by the assay (cyanobacteria [1]; 1000 ppm for 10 min): 4.28 ppb
Microcystin concentration determined by the assay (cyanobacteria [1]; 1000 ppm for 20 min): 4.96 ppb
Microcystin concentration determined by the assay (cyanobacteria [1]; 1000 ppm for 30 min): 5.64 ppb
Microcystin concentration determined by the assay (cyanobacteria [1]; 5000 ppm): 4.79 ppb

— US11035856B1 (priority 2007, dated 2021)
